In patent publication US6399581B1, “Compound possessing potent thrombin receptor antagonist activity” (Harbor Branch Oceanographic Institution, Inc., priority 1999, dated 2002):
Values belong to the compound of their own block, whether it stands above or below them.

Legend:
C5 a-receptor = target: T1, C5 a-receptor (Homo sapiens, UniProt P21730); settings: cited from earlier work
T1 sequence (P21730 1-350): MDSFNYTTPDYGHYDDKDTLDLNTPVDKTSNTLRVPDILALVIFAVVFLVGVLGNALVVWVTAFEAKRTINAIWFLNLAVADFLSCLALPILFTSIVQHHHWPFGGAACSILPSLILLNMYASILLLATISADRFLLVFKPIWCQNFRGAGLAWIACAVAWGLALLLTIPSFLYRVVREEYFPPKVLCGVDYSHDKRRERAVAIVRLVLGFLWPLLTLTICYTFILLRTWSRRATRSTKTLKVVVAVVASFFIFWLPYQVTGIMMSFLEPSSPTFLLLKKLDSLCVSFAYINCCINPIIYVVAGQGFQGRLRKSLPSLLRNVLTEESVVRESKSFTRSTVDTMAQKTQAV

rat mast cells = settings: cited from earlier work
[1] = target: T2, protease-activated receptor 1 (PAR-1) (Homo sapiens, UniProt P25116); experiment: Thrombin-induced platelet aggregation, human washed platelets; format: cell-based; settings: thrombin 0.1 U/ml
T2 construct: Blood was withdrawn from the antecubal vein of healthy human volunteers; endogenous in cells; host or cells: washed platelets from blood of healthy human volunteers
T2 sequence (P25116 22-425): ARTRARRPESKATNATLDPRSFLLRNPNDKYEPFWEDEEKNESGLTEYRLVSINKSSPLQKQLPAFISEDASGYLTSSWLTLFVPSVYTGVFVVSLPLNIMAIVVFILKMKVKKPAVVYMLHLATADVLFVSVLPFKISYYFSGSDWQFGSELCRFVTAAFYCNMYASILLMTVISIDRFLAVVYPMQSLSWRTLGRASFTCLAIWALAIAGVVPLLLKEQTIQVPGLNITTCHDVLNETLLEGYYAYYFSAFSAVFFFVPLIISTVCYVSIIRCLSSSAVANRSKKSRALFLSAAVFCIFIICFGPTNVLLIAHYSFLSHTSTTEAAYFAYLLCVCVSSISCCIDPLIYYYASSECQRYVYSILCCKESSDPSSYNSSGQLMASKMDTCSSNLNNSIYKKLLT
Procedure: (§1) Platelet aggregation assay: Blood was withdrawn from the antecubal vein of healthy human volunteers who had taken no medication for 14 days. The blood (9 volumes) was anti-coagulated with 1 volume of 3.8% w/v tri-sodium citrate, to give a final citrate concentration of 12.9 mM. To each 20 ml volume of anti-coagulated blood 50 μl of a 10 μg/ml prostacyclin (PGI2) solution was added to prevent activation during the platelet isolation process. The prostacyclin-treated blood was then centrifuged (1280×g; 4 minutes) to yield platelet-rich plasma (PRP). […] The supernatant (platelet-poor plasma) was discarded and the platelets resuspended in a Hepes buffer (NaCl (8 g/l); NaHCO3 (1 g/l); KCl (0.2 g/l); KH2 PO4 (0.1 g/l); Hepes (1.2 g/l); D-Glucose (1 g/l) adjusted to a pH of 6.4. The resultant platelet suspension was again centrifuged (1280×g; 8 minutes) to pellet the platelets. The supernatant was discarded and the platelets resuspended in a Hepes buffer of the same composition but adjusted to a pH of 7.4. The platelet count was then adjusted to 300,000 platelets/μl, following quantification on a Sysmex K1000 Haematological analyser and CaCl2 (1 mM) and MgCl2 (0.5 mM) were added back. […]
(§2) Platelet aggregation, in a human washed platelet preparation, was quantified using an optical aggregometer. […]

[2] = tested on: liver hepatocyte (HepG2) cells; experiment: Toxicity against liver hepatocyte (HepG2) cells; format: cell-based
thrombin receptor = target: T3, thrombin receptor (Homo sapiens, UniProt P25116); experiment: Thrombin receptor antagonist assay using FLIPR: thrombin-induced intracellular calcium mobilization in HeLa cells; format: cell-based; settings: fluo-3, thrombin 0.3 U/ml
T3 construct: HeLa cells, which constitutively express the thrombin receptor; endogenous in cells; host or cells: HeLa cells
T3 sequence (P25116 22-425): T2 sequence (P25116 22-425)
Procedure: Tests were conducted of inhibition of thrombin-induced calcium mobilization in HeLa cells (see FIG. 2). […] The HPLC profiles of the extracts were very similar, and in both cases the biological activity resided in the same chromatographic fractions indicating common active principles. One of these was fully deconvoluted, and several active components were isolated. These were all glycosides of penasterol though differing in the number of sugar residues attached at the C-1 position.
Thrombin receptor antagonist assay using FLIPR (fluorescence)imaging plate reader: HeLa cells were suspended in complete media and the cell density measured then adjusted to give a final cell density of 2.0×10^5/ml. 100 μl of cell suspension was dispensed into 96-well microtitre plates using a Multipdrop 96/384 well plate dispenser. […] Fluorescence output was read every 1 second for the first 20 seconds then every 5 seconds for a further 30 seconds.
An assay was conducted based upon measurement of thrombin-inducedintracellular calcium mobilization in HeLa cells, which constitutively express the thrombin receptor. Intracellular calcium flux was measured using the fluorescent dye fluo-3' which in the absence of calcium ions fluoresces only weakly, but in the presence of calcium increases fluorescence by approximately 100-fold. Fluorescence was measured using a fluorescence imaging plate reader (FLIPR; see FIG. 2).

[3] = target: T2, protease-activated receptor 1 (PAR-1); experiment: SFLLRN-induced platelet aggregation, human washed platelets; format: cell-based
Procedure: as §1, §2

[4] = tested on: human washed platelet preparation; experiment: U-46619-induced platelet aggregation, human washed platelets; format: cell-based; settings: U-46619 3 μM
Procedure: as §1, §2

Compound: Eryloside E
Antagonism of C5a-receptor binding (C5 a-receptor): antagonist of C5 a-receptorbinding

Compound: Penasterol
Inhibition of IgE-dependent histamine release (rat mast cells): inhibit IgE-dependent histamine release

Inhibitory potency against thrombin-induced platelet aggregation relative to SFLLRN-induced, fold lower [1]: approximately 20 fold
Inhibition of thrombin-induced calcium mobilization (thrombin receptor antagonist activity) (thrombin receptor): most potent activity
Fold more potent against SFLLRN- than against U-46619-induced platelet aggregation ([3]; SFLLRN 3 μM vs U-46619 3 μM): approximately 6 fold
IC50, inhibition of SFLLRN-induced platelet aggregation ([3]; SFLLRN 3 μM, human washed platelets): 0.3 µg/mL
IC50, inhibition of U-46619-induced platelet aggregation [4]: 1.7 µg/mL
Compound: CC(C)=CCC[C@@H](C)[C@H]1CC[C@@]2(C(=O)O)C3=C(CC[C@]12C)[C@@]1(C)CC[C@H](O[C@@H]2OC[C@H](O)[C@H](O)[C@H]2O[C@@H]2O[C@H](CO)[C@H](O)[C@H](O)[C@H]2O)C(C)(C)[C@@H]1CC3 [Eryloside F, eryloside F]
Toxicity against HepG2 cells [2]: low toxicity

Compound: CC(C)=CCC[C@@H](C)[C@H]1CC[C@@]2(C(=O)O)C3=C(CC[C@]12C)[C@@]1(C)CCC(=O)C(C)(C)[C@@H]1CC3 [penasterone]
Inhibition of IgE-dependent histamine release (rat mast cells): inhibit IgE-dependent histamine release

Compound: CC(=O)O[C@H]1CC[C@]2(C)C3=C(CC[C@H]2C1(C)C)[C@]1(C(=O)O)CC[C@H]([C@H](C)CCC=C(C)C)[C@@]1(C)CC3 [acetylpenasterol]
Inhibition of IgE-dependent histamine release (rat mast cells): inhibit IgE-dependent histamine release
